Data published in patent US20100204224A1, “AZACYCLIC COMPOUNDS AS INHIBITORS OF SENSORY NEURONE SPECIFIC SODIUM CHANNELS” (priority 2005, published 2010).
Where a name gives a salt, the structure may show the parent alone. Read-outs that look alike come from different tables or passages of the source.

Biological target: T1, human Nav1.8 (hNav1.8) ion channel (Homo sapiens, UniProt Q9Y5Y9)
T1 construct: expressed in transfected cells
Experiment: Inhibition of human Nav1.8 stably expressed in SH-SY-5Y cells (membrane potential dye fluorescence assay)
Type: cell-based
Settings: FLIPR membrane potential dye, 10 μM pyrethroid, 250 nM TTX, test concentration range 100 μM-0.05 μM

[1] = SH-SY-5Y hNav1.8 cells, read-out: hNav1.8 IC50
[2] = hNav1.8 IC50, SH-SY-5Y hNav1.8 cells

T1 sequence (Q9Y5Y9 whole entry): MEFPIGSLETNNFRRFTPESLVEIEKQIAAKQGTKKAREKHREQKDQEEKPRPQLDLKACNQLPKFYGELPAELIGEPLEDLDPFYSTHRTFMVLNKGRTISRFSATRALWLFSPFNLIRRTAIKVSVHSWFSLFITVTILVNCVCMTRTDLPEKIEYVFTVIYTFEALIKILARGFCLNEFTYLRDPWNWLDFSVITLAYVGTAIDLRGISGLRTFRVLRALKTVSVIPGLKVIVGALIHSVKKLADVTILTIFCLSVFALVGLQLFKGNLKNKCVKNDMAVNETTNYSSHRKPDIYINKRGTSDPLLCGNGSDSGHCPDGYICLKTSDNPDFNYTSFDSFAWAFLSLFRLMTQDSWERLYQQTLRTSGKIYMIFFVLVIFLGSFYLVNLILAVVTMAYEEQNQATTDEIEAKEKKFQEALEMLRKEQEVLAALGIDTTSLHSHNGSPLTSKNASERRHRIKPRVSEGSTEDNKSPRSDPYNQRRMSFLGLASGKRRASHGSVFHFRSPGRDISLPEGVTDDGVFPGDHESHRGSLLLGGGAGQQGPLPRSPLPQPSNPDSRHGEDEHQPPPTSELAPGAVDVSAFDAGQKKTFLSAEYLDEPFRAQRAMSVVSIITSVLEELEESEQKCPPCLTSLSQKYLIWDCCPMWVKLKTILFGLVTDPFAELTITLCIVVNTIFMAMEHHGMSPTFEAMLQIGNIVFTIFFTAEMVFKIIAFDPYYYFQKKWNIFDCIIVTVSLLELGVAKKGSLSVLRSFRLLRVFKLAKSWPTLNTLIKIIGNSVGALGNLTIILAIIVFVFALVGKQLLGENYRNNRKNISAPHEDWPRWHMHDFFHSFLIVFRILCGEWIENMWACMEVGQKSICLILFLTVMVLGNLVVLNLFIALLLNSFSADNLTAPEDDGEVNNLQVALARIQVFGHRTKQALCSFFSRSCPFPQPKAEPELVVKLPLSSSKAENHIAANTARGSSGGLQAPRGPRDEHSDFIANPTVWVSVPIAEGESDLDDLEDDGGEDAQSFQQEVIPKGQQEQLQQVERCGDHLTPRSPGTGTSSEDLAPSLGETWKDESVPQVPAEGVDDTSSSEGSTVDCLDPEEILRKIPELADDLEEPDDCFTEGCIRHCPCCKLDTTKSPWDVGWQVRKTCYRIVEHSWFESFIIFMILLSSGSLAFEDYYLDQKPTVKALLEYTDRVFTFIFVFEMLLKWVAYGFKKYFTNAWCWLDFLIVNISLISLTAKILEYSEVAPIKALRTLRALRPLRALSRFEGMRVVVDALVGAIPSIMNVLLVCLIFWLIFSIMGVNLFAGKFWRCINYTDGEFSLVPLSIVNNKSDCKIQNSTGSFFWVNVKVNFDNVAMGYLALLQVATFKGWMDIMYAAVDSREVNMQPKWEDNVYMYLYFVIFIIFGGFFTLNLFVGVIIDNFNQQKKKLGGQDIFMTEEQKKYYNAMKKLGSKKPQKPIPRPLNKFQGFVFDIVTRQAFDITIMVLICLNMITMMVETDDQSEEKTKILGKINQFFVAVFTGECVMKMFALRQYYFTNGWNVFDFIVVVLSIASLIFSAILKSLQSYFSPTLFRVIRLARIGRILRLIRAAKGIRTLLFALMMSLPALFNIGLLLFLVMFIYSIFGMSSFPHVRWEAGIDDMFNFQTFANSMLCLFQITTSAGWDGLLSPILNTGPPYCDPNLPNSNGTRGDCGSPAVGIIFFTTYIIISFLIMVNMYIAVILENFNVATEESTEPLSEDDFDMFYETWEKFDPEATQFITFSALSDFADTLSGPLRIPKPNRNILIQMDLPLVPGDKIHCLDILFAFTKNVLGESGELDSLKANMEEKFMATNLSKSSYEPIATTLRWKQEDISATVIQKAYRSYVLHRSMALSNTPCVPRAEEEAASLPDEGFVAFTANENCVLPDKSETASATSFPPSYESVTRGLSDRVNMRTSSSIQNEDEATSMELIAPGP

Compound	IC50 [1] [nM]	IC50 [2] [nM]
CC(c1ccc(F)cc1)N1CC2CC1CN2C(=O)Nc1cccc(C(F)(F)F)c1 (stereo not drawn) [Example 50, 5-[1-(4-Fluoro-phenyl)-ethyl]-2,5-diaza-bicyclo[2.2.1]heptane-2-carboxylic acid (3-trifluoromethyl-phenyl)-amide]	2620	
CC(c1ccc(F)cc1)N1CC2CC1CN2C(=O)Nc1ccc(Oc2ccccc2)cc1 (stereo not drawn) [Example 51, 5-[1-(4-Fluoro-phenyl)-ethyl]-2,5-diaza-bicyclo[2.2.1]heptane-2-carboxylic acid (4-phenoxy-phenyl)-amide]	410	
CC(c1ccc(F)cc1)N1CC2CC1CN2C(=O)Nc1cccc(Oc2ccccc2)c1 (stereo not drawn) [Example 52, 5-[1-(4-Fluoro-phenyl)-ethyl]-2,5-diaza-bicyclo[2.2.1]heptane-2-carboxylic acid (3-phenoxy-phenyl)-amide]	900	
CC(c1ccc(F)cc1)N1CC2CC1CN2C(=O)Nc1ccc(C(F)(F)F)cc1 (stereo not drawn) [Example 53, 5-[1-(4-Fluoro-phenyl)-ethyl]-2,5-diaza-bicyclo[2.2.1]heptane-2-carboxylic acid (4-trifluoromethyl-phenyl)-amide]	2500	
CC(c1ccccc1C(F)(F)F)N1CC2CC1CN2C(=O)Nc1cccc(C(F)(F)F)c1 (stereo not drawn) [Example 55, 5-[1-(2-Trifluoromethyl-phenyl)-ethyl]-2,5-diaza-bicyclo[2.2.1]heptane-2-carboxylic acid (3-trifluoromethyl-phenyl)-amide]	4240	
CC(c1ccccc1C(F)(F)F)N1CC2CC1CN2C(=O)Nc1cccc(C(F)(F)F)c1 (stereo not drawn) [Example 57, 5-[1-(2-Trifluoromethyl-phenyl)-ethyl]-2,5-diaza-bicyclo[2.2.1]heptane-2-carboxylic acid (3-trifluoromethyl-phenyl)-amide]	5130	
Cc1ccccc1CC(C)N1CC2CC1CN2C(=O)Nc1ccc(Oc2ccccc2)cc1 (stereo not drawn) [Example 58, 5-(1-Methyl-2-o-tolyl-ethyl)-2,5-diaza-bicyclo[2.2.1]heptane-2-carboxylic acid (4-phenoxy-phenyl)-amide]	230	
Cc1ccccc1CC(C)N1CC2CC1CN2C(=O)Nc1ccc(C(F)(F)F)cc1 (stereo not drawn) [Example 59, 5-(1-Methyl-2-o-tolyl-ethyl)-2,5-diaza-bicyclo[2.2.1]heptane-2-carboxylic acid (4-trifluoromethyl-phenyl)-amide]	750	
CC(c1ccccc1C(F)(F)F)N1CC2CC1CN2C(=O)Nc1cccc(Oc2ccccc2)c1 (stereo not drawn) [Example 61, 5-[1-(2-Trifluoromethyl-phenyl)-ethyl]-2,5-diaza-bicyclo[2.2.1]heptane-2-carboxylic acid (3-phenoxy-phenyl)-amide]	4640	
CC(c1ccccc1C(F)(F)F)N1CC2CC1CN2C(=O)Nc1cccc(Oc2ccccc2)c1 (stereo not drawn) [Example 63, 5-[1-(2-Trifluoromethyl-phenyl)-ethyl]-2,5-diaza-bicyclo[2.2.1]heptane-2-carboxylic acid (3-phenoxy-phenyl)-amide]	6100	
Cc1cc(F)ccc1C(C)N1CC2CC1CN2C(=O)Nc1ccc(Oc2ccccc2)cc1 (stereo not drawn) [Example 64, 5-[1-(4-Fluoro-2-methyl-phenyl)-ethyl]-2,5-diaza-bicyclo[2.2.1]heptane-2-carboxylic acid (4-phenoxy-phenyl)-amide]	270	
Cc1cc(F)ccc1C(C)N1CC2CC1CN2C(=O)Nc1ccc(C(F)(F)F)cc1 (stereo not drawn) [Example 65, 5-[1-(4-Fluoro-2-methyl-phenyl)-ethyl]-2,5-diaza-bicyclo[2.2.1]heptane-2-carboxylic acid (4-trifluoromethyl-phenyl)-amide]	600	
Cc1ccccc1C(C)N1CC2CC1CN2C(=O)Nc1ccc(C(=O)c2ccccc2)cc1 (stereo not drawn) [Example 66, 5-(1-o-Tolyl-ethyl)-2,5-diaza-bicyclo[2.2.1]heptane-2-carboxylic acid (4-benzoyl-phenyl)-amide]	720	
Cc1ccccc1CC(C)N1CC2CC1CN2C(=O)Nc1cccc(C(F)(F)F)c1 (stereo not drawn) [Example 67, 5-(1-Methyl-2-o-tolyl-ethyl)-2,5-diaza-bicyclo[2.2.1]heptane-2-carboxylic acid (3-trifluoromethyl-phenyl)-amide]	1220	
Cc1ccccc1C(C)N1CC2CC1CN2C(=O)Nc1ccc(C(O)c2ccccc2)cc1 (stereo not drawn) [Example 68, 5-(1-o-Tolyl-ethyl)-2,5-diaza-bicyclo[2.2.1]heptane-2-carboxylic acid [4-(hydroxy-phenyl-methyl)-phenyl]-amide]	6150	
Cc1ccccc1C(C)N1CC2CC1CN2C(=O)NC(C)c1ccc(F)cc1 (stereo not drawn) [Example 69, 5-(1-o-Tolyl-ethyl)-2,5-diaza-bicyclo[2.2.1]heptane-2-carboxylic acid [1-(4-fluoro-phenyl)-ethyl]-amide]	17100	
Cc1ccccc1CC(C)N1CC2CC1CN2C(=O)NC(C)c1ccc(F)cc1 (stereo not drawn) [Example 70, 5-(1-Methyl-2-o-tolyl-ethyl)-2,5-diaza-bicyclo[2.2.1]heptane-2-carboxylic acid [1-(4-fluoro-phenyl)-ethyl]-amide]	5080	

Compound	IC50 [1] [nM]	IC50 [2] [nM]
Cc1cc(F)ccc1C(C)N1CC2CC1CN2C(=O)Nc1ccc(C(=O)c2ccccc2)cc1 (stereo not drawn) [Example 71, 5-[1-(4-Fluoro-2-methyl-phenyl)-ethyl]-2,5-diaza-bicyclo[2.2.1]heptane-2-carboxylic acid (4-benzoyl-phenyl)-amide]	2360	
Cc1cc(F)ccc1C(C)N1CC2CC1CN2C(=O)Nc1ccc(C(=O)c2ccccc2)cc1 (stereo not drawn) [Example 72, 5-[1-(4-Fluoro-2-methyl-phenyl)-ethyl]-2,5-diaza-bicyclo[2.2.1]heptane-2-carboxylic acid (4-benzoyl-phenyl)-amide]	2260	
Cc1cc(F)ccc1C(C)N1CC2CC1CN2C(=O)Nc1ccc(Oc2ccc(F)cc2)cc1 (stereo not drawn) [Example 75, 5-[1-(4-Fluoro-2-methyl-phenyl)-ethyl]-2,5-diaza-bicyclo[2.2.1]heptane-2-carboxylic acid [4-(4-fluoro-phenoxy)-phenyl]-amide]	570	
O=C(Nc1ccc(C(F)(F)F)cc1)N1CC2CC1CN2C1CCc2ccccc2C1 (stereo not drawn) [Example 77, 5-(1,2,3,4-Tetrahydro-naphthalen-2-yl)-2,5-diaza-bicyclo[2.2.1]heptane-2-carboxylic acid (4-trifluoromethyl-phenyl)-amide]	590	
Cc1ccccc1C(C)N1CC2CC1CN2C(=O)Nc1ccc(Oc2ccc(F)cc2)cc1 (stereo not drawn) [Example 78, 5-(1-o-Tolyl-ethyl)-2,5-diaza-bicyclo[2.2.1]heptane-2-carboxylic acid [4-(4-fluoro-phenoxy)-phenyl]-amide fumarate salt]		230
CC(Cc1ccccc1F)N1CC2CC1CN2C(=O)Nc1ccc(C(F)(F)F)cc1 (stereo not drawn) [Example 79, 5-[2-(2-Fluoro-phenyl)-1-methyl-ethyl]-2,5-diaza-bicyclo[2.2.1]heptane-2-carboxylic acid (4-trifluoromethyl-phenyl)-amide]	780	
CC(Cc1ccc(F)cc1)N1CC2CC1CN2C(=O)Nc1ccc(C(F)(F)F)cc1 (stereo not drawn) [Example 80, 5-[2-(4-Fluoro-phenyl)-1-methyl-ethyl]-2,5-diaza-bicyclo[2.2.1]heptane-2-carboxylic acid (4-trifluoromethyl-phenyl)-amide]	490	
CC(C(C#N)c1ccccc1)N1CC2CC1CN2C(=O)Nc1ccc(C(F)(F)F)cc1 (stereo not drawn) [Example 81, 5-(2-Cyano-1-methyl-2-phenyl-ethyl)-2,5-diaza-bicyclo[2.2.1]heptane-2-carboxylic acid (4-trifluoromethyl-phenyl)-amide]	26200	
CC(Cc1ccccc1Cl)N1CC2CC1CN2C(=O)Nc1ccc(C(F)(F)F)cc1 (stereo not drawn) [Example 82, 5-[2-(2-Chloro-phenyl)-1-methyl-ethyl]-2,5-diaza-bicyclo[2.2.1]heptane-2-carboxylic acid (4-trifluoromethyl-phenyl)-amide]	440	
CC(Cc1ccc(Cl)cc1)N1CC2CC1CN2C(=O)Nc1ccc(C(F)(F)F)cc1 (stereo not drawn) [Example 83, 5-[2-(4-Chloro-phenyl)-1-methyl-ethyl]-2,5-diaza-bicyclo[2.2.1]heptane-2-carboxylic acid (4-trifluoromethyl-phenyl)-amide]	680	
CC(Cc1ccc(Cl)cc1Cl)N1CC2CC1CN2C(=O)Nc1ccc(C(F)(F)F)cc1 (stereo not drawn) [Example 84, 5-[2-(2,4-Dichloro-phenyl)-1-methyl-ethyl]-2,5-diaza-bicyclo[2.2.1]heptane-2-carboxylic acid (4-trifluoromethyl-phenyl)-amide]	1060	
CC(Cc1c(F)cccc1Cl)N1CC2CC1CN2C(=O)Nc1ccc(C(F)(F)F)cc1 (stereo not drawn) [Example 85, 5-[2-(2-Chloro-6-fluoro-phenyl)-1-methyl-ethyl]-2,5-diaza-bicyclo[2.2.1]heptane-2-carboxylic acid (4-trifluoromethyl-phenyl)-amide]	630	
COc1ccccc1CC(C)N1CC2CC1CN2C(=O)Nc1ccc(C(F)(F)F)cc1 (stereo not drawn) [Example 86, 5-[2-(2-Methoxy-phenyl)-1-methyl-ethyl]-2,5-diaza-bicyclo[2.2.1]heptane-2-carboxylic acid (4-trifluoromethyl-phenyl)-amide]	670	
Cc1ccccc1C(C)N1CC2CC1CN2C(=O)Nc1ccc(Oc2ccc(F)cc2)cc1 (stereo not drawn) [Example 87, 5-(1-o-Tolyl-ethyl)-2,5-diaza-bicyclo[2.2.1]heptane-2-carboxylic acid [4-(4-fluoro-phenoxy)-phenyl]-amide methanesulfonate salt]		600
O=C(Nc1ccc(Oc2ccccc2)cc1)N1CCC2(CCN(Cc3ccccc3)C2)C1 (stereo not drawn) [Example 88, 7-Benzyl-2,7-diaza-spiro[4.4]nonane-2-carboxylic acid (4-phenoxy-phenyl)-amide]	390	
O=C(Nc1ccc(Oc2ccccc2)cc1)N1CC2CN(Cc3ccccc3)CC2C1 (stereo not drawn) [Example 89, 5-Benzyl-hexahydro-pyrrolo[3,4-c]pyrrole-2-carboxylic acid (4-phenoxy-phenyl)-amide]	400	
